The source made the active and inactive calls.
Experiments:
Coagulation factor XII = biological target: T1, Coagulation factor XII (Homo sapiens, UniProt P00748); format: functional;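 also: activated factor XIIa alpha cleaving a fluorogenic AMC peptide substrate; inhibitor potency from loss of enzyme activity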
T1 sequence (P00748 whole entry): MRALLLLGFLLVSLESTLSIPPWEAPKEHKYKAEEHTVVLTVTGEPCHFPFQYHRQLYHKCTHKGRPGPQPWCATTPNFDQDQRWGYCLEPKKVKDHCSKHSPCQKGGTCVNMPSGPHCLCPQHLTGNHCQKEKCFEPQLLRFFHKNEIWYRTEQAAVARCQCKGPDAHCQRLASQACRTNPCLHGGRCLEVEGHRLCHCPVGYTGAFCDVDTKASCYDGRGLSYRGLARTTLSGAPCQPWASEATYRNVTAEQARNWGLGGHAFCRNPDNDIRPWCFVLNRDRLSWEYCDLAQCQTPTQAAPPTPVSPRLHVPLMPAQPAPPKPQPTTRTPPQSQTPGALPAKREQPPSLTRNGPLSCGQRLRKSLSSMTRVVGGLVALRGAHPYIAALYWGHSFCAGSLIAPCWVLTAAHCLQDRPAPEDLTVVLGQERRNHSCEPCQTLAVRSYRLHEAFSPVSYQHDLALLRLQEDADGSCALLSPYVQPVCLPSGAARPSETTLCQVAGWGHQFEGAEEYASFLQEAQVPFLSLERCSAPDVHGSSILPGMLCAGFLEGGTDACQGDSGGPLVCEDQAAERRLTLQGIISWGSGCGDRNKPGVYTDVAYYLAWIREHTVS

HeLa = assay: HeLa cell cytotoxicity, dose response, cytotoxicity control for MITF activator project, CellTiter-Glo luminescence, cherry-pick samples (AID 540259); format: functional, cell-based; conditions: Homo sapiens
Cytochrome P450 3A4 [1] = biological target: T2, Cytochrome P450 3A4 (Homo sapiens, UniProt P08684);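 also: CYP3A4 tested as one member of a cytochrome P450 panel screen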
T2 sequence (P08684 whole entry): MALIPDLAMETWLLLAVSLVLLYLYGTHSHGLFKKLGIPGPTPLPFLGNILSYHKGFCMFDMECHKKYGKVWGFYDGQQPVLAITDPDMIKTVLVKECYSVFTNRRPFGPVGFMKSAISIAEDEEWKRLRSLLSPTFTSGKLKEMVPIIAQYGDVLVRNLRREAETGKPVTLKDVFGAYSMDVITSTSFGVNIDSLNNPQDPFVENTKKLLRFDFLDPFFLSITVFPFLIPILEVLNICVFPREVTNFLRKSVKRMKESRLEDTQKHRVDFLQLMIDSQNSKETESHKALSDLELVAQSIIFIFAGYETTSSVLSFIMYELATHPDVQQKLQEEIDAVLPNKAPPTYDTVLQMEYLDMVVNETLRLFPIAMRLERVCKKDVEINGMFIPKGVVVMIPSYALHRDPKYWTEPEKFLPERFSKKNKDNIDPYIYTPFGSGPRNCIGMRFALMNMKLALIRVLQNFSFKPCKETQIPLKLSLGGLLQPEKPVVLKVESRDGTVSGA

Cytochrome P450 3A4 [2] = biological target: T2, Cytochrome P450 3A4; remark: listed apart in the source
[3] = biological target: T3, Long-chain-fatty-acid--AMP ligase FadD28 (Mycobacterium tuberculosis, UniProt P9WQ59); assay: Fluorescence polarization aasay to screen for inhibitors that compete for the binding of FadD28 to a bisubstrate Measured in Biochemical System Using Plate Reader - 2147-01_Inhibitor_Dose_CherryPick_Activity.; format: functional, Mycobacterium tuberculosis H37Rv
T3 sequence (P9WQ59 whole entry): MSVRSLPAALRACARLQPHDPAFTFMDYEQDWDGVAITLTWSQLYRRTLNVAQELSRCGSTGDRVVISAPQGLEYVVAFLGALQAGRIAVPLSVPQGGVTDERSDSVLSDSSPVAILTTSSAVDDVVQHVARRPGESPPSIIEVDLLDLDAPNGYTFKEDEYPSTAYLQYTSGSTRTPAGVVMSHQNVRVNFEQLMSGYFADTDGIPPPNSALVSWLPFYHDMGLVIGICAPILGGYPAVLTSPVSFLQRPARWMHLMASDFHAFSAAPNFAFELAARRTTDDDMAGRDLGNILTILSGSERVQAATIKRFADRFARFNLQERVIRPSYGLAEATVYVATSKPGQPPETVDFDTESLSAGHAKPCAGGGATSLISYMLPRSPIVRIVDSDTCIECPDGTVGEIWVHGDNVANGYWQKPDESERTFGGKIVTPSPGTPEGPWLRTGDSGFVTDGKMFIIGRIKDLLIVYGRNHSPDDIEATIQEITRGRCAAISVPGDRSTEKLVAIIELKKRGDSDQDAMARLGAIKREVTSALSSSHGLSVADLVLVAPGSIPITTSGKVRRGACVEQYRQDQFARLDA

[4] = inhibitors of firefly luciferase expression or activity, dose response, H4 neuroglioma cells, luminescence (AID 1990); format: functional, cell-based
BJ [5] = assay: cytotoxicity toward BJ-TERT fibroblasts, dose response, cell-based, RAS-independent, luminescence (AID 1933); format: functional; conditions: Homo sapiens
[6] = Luminescence Cell-Based Dose Response HTS to Identify Inhibitors of 5'UTR Stem-Loop Driven Prion Protein mRNA Translation in H4 Neuroglioblastoma Cells. [Related pubchem assays: 1827 (Project Summary), 1813 (Primary HTS)]; format: functional
[7] = inhibitors of SNCA 5'UTR-driven reporter translation, confirmation, H4 neuroglioma cells, luminescence (AID 1988); format: functional, cell-based
BJ [8] = assay: cells; format: functional, cell-based; conditions: Homo sapiens
BJ [9] = assay: cytotoxicity toward BJ-TERT-LT-ST fibroblasts, dose response, cell-based, RAS-independent, luminescence (AID 1935); format: functional; conditions: Homo sapiens;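 also: BJ fibroblasts immortalized with TERT plus LT and ST oncogenes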
[10] = cytotoxicity toward DRD oncogenic fibroblasts, dose response, cell-based, non-viral oncogenic, luminescence (AID 1934); format: functional; conditions: Homo sapiens
BJ [11] = assay: cytotoxicity toward Ras-transformed BJeLR fibroblasts, dose response, cell-based, alamar blue fluorescence, cherrypicked samples (AID 2631); format: functional; conditions: Homo sapiens;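 also: confirmatory dose-response assay in RAS-dependent BJ fibroblasts engineered with TERT, LT and ST, with cytotoxicity read by fluorescence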
[12] = biological target: T4, Endoribonuclease toxin MazF (Escherichia coli K-12, UniProt P0AE70); assay: MazF toxin RNase activators, dose response, biochemical, fluorescence, single-stranded RNA substrate, uHTS hits (AID 588481); format: functional
T4 sequence (P0AE70 whole entry): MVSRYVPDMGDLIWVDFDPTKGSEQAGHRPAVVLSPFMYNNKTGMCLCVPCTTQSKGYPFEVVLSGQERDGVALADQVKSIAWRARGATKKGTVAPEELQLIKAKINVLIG

[13] = biological target: T4, Endoribonuclease toxin MazF; assay: fluorescent RNA oligo signal without MazF, dose response, counter-screen for MazEF activator project, biochemical, fluorescence, single-stranded RNase substrate (AID 588502); format: functional
[14] = biological target: Heat shock protein HSP 90-alpha (Homo sapiens, UniProt P07900); format: functional, organism-based
[15] = biological target: Ras and Rab interactor 1/Tyrosine-protein kinase ABL1 (Homo sapiens, UniProt P00519+Q13671); format: functional;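 also: biochemical TR-FRET dose-response test measuring inhibition of binding between Rin1 and Abl proteins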
Chain of Ras and Rab interactor 1/Tyrosine-protein kinase ABL1 (P00519 whole entry): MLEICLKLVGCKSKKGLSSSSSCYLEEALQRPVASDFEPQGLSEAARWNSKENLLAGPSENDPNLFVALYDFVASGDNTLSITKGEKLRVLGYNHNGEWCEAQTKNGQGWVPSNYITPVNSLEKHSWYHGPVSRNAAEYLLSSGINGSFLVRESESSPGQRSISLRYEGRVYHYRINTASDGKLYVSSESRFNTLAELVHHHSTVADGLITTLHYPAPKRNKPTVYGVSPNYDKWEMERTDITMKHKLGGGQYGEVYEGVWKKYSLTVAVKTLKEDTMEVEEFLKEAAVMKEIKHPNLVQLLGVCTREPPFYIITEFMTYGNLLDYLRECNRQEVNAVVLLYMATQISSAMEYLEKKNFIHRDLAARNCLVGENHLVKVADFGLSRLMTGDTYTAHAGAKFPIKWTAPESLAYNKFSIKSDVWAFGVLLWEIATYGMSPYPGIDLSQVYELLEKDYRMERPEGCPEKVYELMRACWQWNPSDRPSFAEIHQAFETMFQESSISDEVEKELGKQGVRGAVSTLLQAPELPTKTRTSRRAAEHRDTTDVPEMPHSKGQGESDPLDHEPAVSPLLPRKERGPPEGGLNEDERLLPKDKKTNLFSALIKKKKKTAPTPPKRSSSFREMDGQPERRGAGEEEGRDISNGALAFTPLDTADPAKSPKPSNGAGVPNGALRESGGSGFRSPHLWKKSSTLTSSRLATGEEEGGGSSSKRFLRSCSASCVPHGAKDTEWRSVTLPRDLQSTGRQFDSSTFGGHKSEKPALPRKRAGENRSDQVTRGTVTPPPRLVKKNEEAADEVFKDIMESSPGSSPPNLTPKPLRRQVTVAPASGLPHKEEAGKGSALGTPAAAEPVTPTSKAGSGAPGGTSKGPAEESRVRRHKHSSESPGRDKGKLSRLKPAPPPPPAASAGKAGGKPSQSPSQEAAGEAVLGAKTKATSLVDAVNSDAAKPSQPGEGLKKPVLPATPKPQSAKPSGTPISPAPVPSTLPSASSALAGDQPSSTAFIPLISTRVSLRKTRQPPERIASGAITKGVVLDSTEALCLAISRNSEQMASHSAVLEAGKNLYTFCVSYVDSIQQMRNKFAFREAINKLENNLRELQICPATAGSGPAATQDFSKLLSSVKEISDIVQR
Chain of Ras and Rab interactor 1/Tyrosine-protein kinase ABL1 (Q13671 whole entry): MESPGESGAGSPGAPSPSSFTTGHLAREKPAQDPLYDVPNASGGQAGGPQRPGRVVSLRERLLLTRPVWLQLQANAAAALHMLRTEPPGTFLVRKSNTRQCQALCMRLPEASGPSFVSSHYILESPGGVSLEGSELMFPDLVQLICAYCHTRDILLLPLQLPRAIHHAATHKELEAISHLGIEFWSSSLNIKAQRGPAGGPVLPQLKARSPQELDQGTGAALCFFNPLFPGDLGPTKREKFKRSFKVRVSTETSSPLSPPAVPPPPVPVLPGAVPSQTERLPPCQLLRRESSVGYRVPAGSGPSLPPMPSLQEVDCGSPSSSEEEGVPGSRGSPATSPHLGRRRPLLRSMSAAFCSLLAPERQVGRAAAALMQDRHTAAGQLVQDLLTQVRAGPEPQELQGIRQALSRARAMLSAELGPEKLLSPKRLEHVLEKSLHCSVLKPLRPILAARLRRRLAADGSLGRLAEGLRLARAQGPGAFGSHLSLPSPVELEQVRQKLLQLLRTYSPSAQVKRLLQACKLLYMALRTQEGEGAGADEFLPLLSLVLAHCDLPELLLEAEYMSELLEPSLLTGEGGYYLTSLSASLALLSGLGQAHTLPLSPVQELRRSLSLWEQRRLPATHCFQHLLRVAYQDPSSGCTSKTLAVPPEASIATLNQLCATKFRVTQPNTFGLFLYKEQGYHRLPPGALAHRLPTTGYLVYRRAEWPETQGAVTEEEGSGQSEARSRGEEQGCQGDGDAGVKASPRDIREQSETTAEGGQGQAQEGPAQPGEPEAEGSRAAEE

[16] = NIH-3T3 fibroblast cytotoxicity, dose response, cytotoxicity control, cell-based, fluorescence, Alamar Blue, secondary assay (AID 2327); format: functional;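 also: NIH-3T3 mouse fibroblasts cultured with fluconazole at 8 µg/mL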
[17] = C. albicans growth with fluconazole, confirmation, fluorescence, retest (AID 2467); format: functional, cell-based
[18] = Luminescence Cell-Based Dose Response HTS to Identify Activators of Luciferase Translation or Activity in H4 […] Cells. [Related pubchem assays: 1829 (Project Summary), 1814 (Primary HTS)]; format: functional
H4 = assay: Luminescence Cell-Based Dose Response HTS to Identify Activators of 5'UTR Stem-Loop Driven Prion Protein mRNA Translation in H4 Neuroglioblastoma Cells. [Related pubchem assays: 1829 (Project Summary), 1814 (Primary HTS)]; format: functional; conditions: Homo sapiens

SMILES: Cc1onc(-c2c(F)cccc2Cl)c1-c1nnc(-c2ccc(C(F)(F)F)cc2)o1
- IC50 (Coagulation factor XII): > 50 µM (inactive)

SMILES: CC1CCCC(C)N1C(=O)c1cc(-c2ccc3c(c2)OCO3)on1 (stereo not drawn)
- AC50 (HeLa): > 350 µM (inactive)

SMILES: Nc1ccccc1C#Cc1ccccc1
- AC50 (HeLa): > 350 µM (inactive)
- AC50 (Cytochrome P450 3A4 [1]): 15.8 µM (inconclusive)
- AC50 (Cytochrome P450 3A4 [2]): 15.8 µM (inconclusive)

SMILES: COc1ccc(C2CC(=O)Oc3c(C(C)C)ccc(C)c32)cc1 (stereo not drawn)
- AC50 [3]: > 100 µM (inactive)

SMILES: COc1ccc(S(=O)(=O)N2CCOCC2)cc1NC(=O)CCNC(=O)c1ccc(Br)cc1
- EC50 [4]: 10.6 µM (active)
- EC50 (BJ [5]): > 150 µM (not active)
- EC50 [6]: 5.78 µM (active)
- EC50 [7]: 1.09 µM (active)
- EC50 (BJ [8]): 2.84 µM (inconclusive)
- EC50 (BJ [9]): 2.02 µM (active)
- EC50 [10]: > 150 µM (not active)
- EC50 (BJ [11]): 6.09 µM (active)

SMILES: N#C/C(=C\c1ccc([N+](=O)[O-])cc1)c1nc(C2CC2)cs1
- EC50 [12]: 10.4 µM (active)
- EC50 [13]: > 99 µM (inactive)

SMILES: COc1ccc2c(c1)OC[C@H]1[C@H]2N2C(=O)c3cc(Cl)ccc3NC(=O)[C@@]2(C)[C@H]1c1ccccc1
- AC50 [14]: 0.976 µM (active)

SMILES: O=C(Cc1ccc(NC(=O)C2CCN(C(=O)C3CCCC3)CC2)cc1)Nc1ccc(C(=O)N2CCOCC2)cc1
- IC50 [15]: 1.54 µM (active)

SMILES: O=C(N/N=C/c1ccc(O)c([N+](=O)[O-])c1)C1CC1(c1ccccc1)c1ccccc1 (stereo not drawn)
- EC50 [16]: > 160 µM (inactive)
- EC50 [17]: 1.04 µM (active)
- AC50 [3]: 22.2 µM (active)

SMILES: COc1ccc(C(=O)N/N=C\c2coc3ccc(C)cc3c2=O)cc1
- EC50 [12]: > 99 µM (inactive)
- EC50 [13]: > 99 µM (inactive)

SMILES: CSc1nccc(N/N=C/c2ccccc2)n1
- EC50 [18]: 0.32 µM (active)
- EC50 (H4): 2.55 µM (active)
- AC50 (HeLa): 100 µM (active)

SMILES: CCOC(=O)c1c(/N=C/C2C(=O)NC(=O)NC2=O)sc2c1CCC2
- EC50 [12]: > 99 µM (inactive)
- EC50 [13]: > 99 µM (inactive)

From ChEMBL document CHEMBL1201862, “PubChem BioAssay data set” (2004)
